Key:
[1] = test system: 520C9 cells; assay: MTT cell growth and viability assay after fluorescent dye labeling; format: cell-based, murine; conditions: labeled 20 minutes with hydroethidine 10 µg/ml at room temperature, washed, cultured three days in dye free medium; Figure 1
Excerpt: (§1) The effect of fluorescent dyes on cell viability can be measured using techniques well known to those skilled in the art. A most useful technique is described by Mosmann, T., J. of Immunol. Methods, 65:55 (1983) which measures cell viability as a function of cell number. Thus, the effect of fluorescent dyes on both cell viability and cell number can be measured simultaneously. The assay is based on the conversion of colorless tetrazolium salts by mitochrondrial dehydrogenase enzymes to a detectable colored product. A favored tetrazolium salt is MTT, or (3-(4,5- dimethylthylthiazol-2-yl)-2,5- diphenyl tetrazolium bromide).
(§2) Cell growth and viability was determined using the MTT assay as described by Mosmann, T., above. […] Each of the above cell lines was tested, and the results are shown in Figures 1, and 2 for 520C9 and 3G8 respectively. For both cell lines the assay was linear at least up to 10⁴ cells/well.
(§3) Next, the same cell lines were labeled in the presence or absence of either rhodamine 123 or hydroethidine, and subsequently cultured for three days during which cell number was measured. Cells were labeled in the presence of 0.5 µg/ml rhodamine 123 plus 10 µM verapamil, or 5 or 10 µg/ml hydroethidine. […]

[2] = test system: 3G8 cells; assay: as above; format: cell-based, murine; conditions: hydroethidine at 10 µg/ml, Figure 2
Excerpt: as §1, §2, §3

CCN1c2cc(N)ccc2-c2ccc(N)cc2C1c1ccccc1 (stereo not drawn) [hydroethidine]
growth rate and cell numbers of 520C9 cells compared to cells grown in medium lacking the compounds [1]: virtually identical | inhibition of 3G8 growth ([2]; labeled 20 minutes, cultured three days): does inhibit | start of inhibition of 3G8 growth [2]: about 24 hours
